Activity calls are given as the source filed them. The rule behind the calls is not given here.

Assay type in all cases: functional
Common to all, as to conditions: for zone of inhibition at 3000 µg/mL: read-out: DIZ

In assay [1] the test system is Candida albicans. In words: Antifungal activity against Candida albicans RSKK 628 at 3000 ug/ml after 18 to 24 hr by disk diffusion method.
Assay [2] has as its system Escherichia coli. In words: Antibacterial activity against Escherichia coli RSKK 313 at 3000 ug/ml after 18 to 24 hr by disk diffusion method.
The test system of assay [3] is Staphylococcus aureus. The experiment in a line: Antibacterial activity against Staphylococcus aureus ATCC 250 at 3000 ug/ml after 18 to 24 hr by disk diffusion method.

As for `Clc1ccc(COC(Cn2ccnc2)c2ccc(Cl)cc2Cl)c(Cl)c1` (stereo not drawn) [MICONAZOLE], the zone of inhibition at 3000 µg/mL in assay [1] came to 35 mm.

In the case of `O=c1cc(-c2cccc(CNCc3ccc(Cl)cc3Cl)c2)oc2ccccc12`, the “diameter of the inhibition zone (DIZ)” value in assay [2] and in assay [1] was “inactive” throughout. Further, the zone of inhibition at 3000 µg/mL in assay [3] is 10 mm.

`O=c1cc(-c2cccc(CNCc3ccc(Cl)c(Cl)c3)c2)oc2ccccc12`: the zone of inhibition at 3000 µg/mL was 12 mm in assay [2], 16 mm in assay [3] and 10 mm in assay [1].

As to `O=c1cc(-c2cccc(CNCc3ccc(F)cc3)c2)oc2ccccc12`, the “diameter of the inhibition zone (DIZ)” value in assay [2] was “inactive”. Further, the results for the zone of inhibition at 3000 µg/mL in assay [3] and in assay [1] were 15 mm and 20 mm, respectively.

On to `O=c1cc(-c2cccc(CNCc3ccccc3)c2)oc2ccccc12`, for which the zone of inhibition at 3000 µg/mL was 10 mm in assay [2], 16 mm in assay [3] and 25 mm in assay [1].

As for `O=C(/C=C/c1ccccc1)N(Cc1ccc(F)cc1)Cc1cccc(-c2cc(=O)c3ccccc3o2)c1`, the “diameter of the inhibition zone (DIZ)” value in assay [2], in assay [3] and in assay [1] was “inactive” each time.

For the compound `O=C(/C=C/c1ccccc1)N(Cc1ccccc1)Cc1cccc(-c2cc(=O)c3ccccc3o2)c1`, the “diameter of the inhibition zone (DIZ)” value in assay [2] and in assay [1] was “inactive” throughout. The zone of inhibition at 3000 µg/mL in assay [3] was found to be 10 mm.

`O=C(/C=C/c1ccccc1)N(Cc1cccc(-c2cc(=O)c3ccccc3o2)c1)Cc1ccc(Cl)cc1Cl`: the “diameter of the inhibition zone (DIZ)” value in assay [2] and in assay [3] was “inactive” in each case. The zone of inhibition at 3000 µg/mL in assay [1] was 15 mm.

As for `O=C(/C=C/c1ccccc1)N(Cc1cccc(-c2cc(=O)c3ccccc3o2)c1)Cc1ccc(Cl)c(Cl)c1`, the “diameter of the inhibition zone (DIZ)” value in assay [2] and in assay [3] was “inactive” throughout. Moreover, the zone of inhibition at 3000 µg/mL in assay [1] was 15 mm.

For the compound `O=C(/C=C/c1ccccc1)N(Cc1ccc(Cl)cc1)Cc1cccc(-c2cc(=O)c3ccccc3o2)c1`, the values for the zone of inhibition at 3000 µg/mL in assay [2] and in assay [1] were 12 mm and 13 mm, respectively. The “diameter of the inhibition zone (DIZ)” value in assay [3] was “inactive”.

`O=c1cc(-c2cccc(CNCc3ccc(Cl)cc3)c2)oc2ccccc12`: the “diameter of the inhibition zone (DIZ)” value in assay [2] was “inactive”. Further, the zone of inhibition at 3000 µg/mL in assay [3] was 25 mm; in assay [1], 15 mm.

`CC1(C)S[C@@H]2[C@H](NC(=O)[C@H](N)c3ccccc3)C(=O)N2[C@H]1C(=O)O` [AMPICILLIN]: the zone of inhibition at 3000 µg/mL turned out to be 20 mm in assay [2] and 30 mm in assay [3].

The values above are taken from ChEMBL document CHEMBL3046593, “Studies on the synthesis of some new substituted benzylamino and phenyl-acrylamido-methyl flavone derivatives” (2007).
